Test system: nitrification of the ammonia nitrogen (NH4—N) in the sludge
Assay: Nitrification batch test in crop soil/water sludge under nitrifying conditions
Details: for inhibition of nitrification of ammonia nitrogen (NH4—N) in the sludge: Tables 3 and 4, in words; for nitrification process: first 8 hours; for NH4—N Conversion Rate During First 24 Hours: dosed NH4—N 50 mg/l; for NH4—N Conversion Rate During First 24 Hours / COD / NH4—N concentration / NO3—N concentration: DCD 5.8 mg/l
Method: Crop soil and water were combined to form a sludge. The freshly-acquired sludge contained a high amount of nitrate nitrogen, therefore, the sludge was pretreated to reduce the chance of denitrification during analysis. Ethylene glycol was added to the sludge and the resulting sludge was purged with nitrogen gas for 24 hours to eliminate the nitrate nitrogen. After 24 hours, the sludge was aerated to eliminate the residual chemical oxygen demand (COD) which could be present. COD refers to the amount of oxygen required to degrade all oxidizable compounds in a measured sample.
A nitrification batch test was performed under nitrifying conditions. The activity of nitrification inhibitor Formula II compound was compared to that of the nitrification inhibitor dicyandiamide (DCD). COD and NH4—N were added to the sludge with one of the Formula II compound or DCD. COD, NH4—N, and NO3—N concentrations were monitored over time (t=0, 2, 4, 6, 8, 24 and 29 hours). The COD and NH4—N removal was calculated from the analysis results. Glycol was included as a reference in the test.
The pH and oxygen content were also monitored during the tests. The pH level was kept between 7 and 8 at the beginning of the tests by adding 1N HCl or 1N NaOH. Oxygen was constantly purged into the sludge solutions throughout the test to get maximum aeration.
Table 2 includes the concentrations assessed for the five batch tests. A sample concentration of approximately 10% compared to the NH4—N concentration was employed.
Values shown in brackets are below the quantification limit and are indicative. Measurements taken at time=0 were taken 60 seconds after mixing the sludge with the indicated substance. The nitrification process was nominal for both DCD and Formula II compound during the first 8 hours, then nitrification rates increased. The NH4—N and NO3—N concentrations were tested at 29 hours to verify that the nitrification process was still ongoing.

[1] = first 24 hours, Formula II compound 7.6 mg/l
[2] = time 0 h (60 seconds after mixing), dosed COD 800 mg O2/l, NH4—N 50 mg/l, Formula II compound 7.6 mg/l
[3] = time 2 h, dosed COD 800 mg O2/l, NH4—N 50 mg/l, Formula II compound 7.6 mg/l
[4] = time 4 h, dosed COD 800 mg O2/l, NH4—N 50 mg/l, Formula II compound 7.6 mg/l
[5] = time 6 h, dosed COD 800 mg O2/l, NH4—N 50 mg/l, Formula II compound 7.6 mg/l
[6] = time 8 h, dosed COD 800 mg O2/l, NH4—N 50 mg/l, Formula II compound 7.6 mg/l
[7] = time 24 h, dosed COD 800 mg O2/l, NH4—N 50 mg/l, Formula II compound 7.6 mg/l
[8] = time 29 h, dosed COD 800 mg O2/l, NH4—N 50 mg/l, Formula II compound 7.6 mg/l

| Compound | inhibition of nitrification of ammonia nitrogen (NH4—N) in the sludge | nitrification process (in words) | NH4—N Conversion Rate During First 24 Hours [1] [mg NH4—N/l · h] | COD [2] [mg O2/l] | NH4—N concentration [2] [mg/L] | NO3—N concentration [2] [mg/L] | COD [3] [mg O2/l] | NH4—N concentration [3] [mg/L] | NO3—N concentration [3] [mg/L] | COD [4] [mg O2/l] | NH4—N concentration [4] [mg/L] | NO3—N concentration [4] [mg/L] | COD [5] [mg O2/l] | NH4—N concentration [5] [mg/L] | NO3—N concentration [5] [mg/L] | COD [6] [mg O2/l] | NH4—N concentration [6] [mg/L] | NO3—N concentration [6] [mg/L] | COD [7] [mg O2/l] | NH4—N concentration [7] [mg/L] | other results |
| --- | --- | --- | --- | --- | --- | --- | --- | --- | --- | --- | --- | --- | --- | --- | --- | --- | --- | --- | --- | --- | --- |
| N#CNC(=N)N [DCD, dicyandiamide, reference compound] | effective at inhibiting the nitrification of the ammonia nitrogen (NH4—N) in the sludge | nominal | 1.5 | 757 | 45.9 | 8.6 | 558 | 43.0 | 5.5 | 360 | 39.4 | 8.9 | 190 | 39.7 | 7.4 | 121 | 33.2 | 7.3 | 48 | 9.9 | NO3—N concentration [7]: 39.0 mg/L; NH4—N concentration [8]: 4.0 mg/L; NO3—N concentration [8]: 47.2 mg/L |
| OCn1cncn1 [Formula II compound, (1H-1,2,4-triazole-1-yl)-methanol] | effective at inhibiting the nitrification of the ammonia nitrogen (NH4—N) in the sludge | nominal | 0.9 | 718 | 45.2 | 8.8 | 497 | 41.6 | 13.8 | 314 | 40.3 | 11.8 | 204 | 42.0 | 7.2 | 158 | 37.9 | < 2.3 | 60 | 23.8 | effectiveness at inhibiting nitrification compared with DCD (first 24 hours, in words): more effective at inhibiting nitrification during the first 24 hours; NO3—N concentration, indicative value in brackets (below the quantification limit) [6]: 1.5 mg/L; NO3—N concentration [7]: 16.2 mg/L; NH4—N concentration [8]: 22.9 mg/L; NO3—N concentration [8]: 20.4 mg/L |

— patent publication US20260317250A1, “TRIAZOLE METHANOL AS NITRIFICATION INHIBITOR FOR FERTILIZER APPLICATION” (SABIC AGRI-NUTRIENTS COMPANY, priority 2022, published 2026)
